How the values were obtained:
Carboplatin = compound: C1CC(C1)(C(=O)[O-])C(=O)[O-].N.N.[Pt+2] [Carboplatin]; conditions: max 10 µM
How it was run: (§1)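 Plates with 1536 wells received cancer cell lines in 7.5 μl of DMEM/F12 or RPMI containing 10% FBS. After 24 hours at 37°C and 5% CO2, cells were dosed for 72 hours with final DMSO typically 0.2%, and viability was read by CellTiter-Glo 2.0 luminescence scaled between blank-well and DMSO-well means. The single-agent IC50 was taken from a logistic fit of the dose responses made with a non-linear mixed effects model, that logistic curve having two parameters.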

AZD5363 = compound: C1CN(CCC1(C(=O)N[C@@H](CCO)C2=CC=C(C=C2)Cl)N)C3=NC=NC4=C3C=CN4 [AZD5363]; conditions: max 10 µM
How it was run: as §1

AZD1775 = compound: C=CCn1c(=O)c2cnc(Nc3ccc(N4CCN(C)CC4)cc3)nc2n1-c1cccc(C(C)(C)O)n1 [AZD1775]; conditions: max 3 µM
How it was run: as §1

Trametinib = compound: CC(=O)Nc1cccc(-n2c(=O)n(C3CC3)c(=O)c3c(Nc4ccc(I)cc4F)n(C)c(=O)c(C)c32)c1 [Trametinib]; conditions: max 1 µM
How it was run: as §1

Paclitaxel = compound: CC(=O)O[C@H]1C(=O)[C@@]2(C)[C@H]([C@H](OC(=O)c3ccccc3)[C@]3(O)C[C@H](OC(=O)[C@H](O)[C@@H](NC(=O)c4ccccc4)c4ccccc4)C(C)=C1C3(C)C)[C@]1(OC(C)=O)CO[C@@H]1C[C@@H]2O [Paclitaxel]; conditions: max 3 µM
How it was run: as §1

Palbociclib = compound: CC(=O)c1c(C)c2cnc(Nc3ccc(N4CCNCC4)cn3)nc2n(C2CCCC2)c1=O [Palbociclib]; conditions: max 10 µM
How it was run: as §1

AZD1390 = compound: CC(C)n1c(=O)n(C)c2cnc3cc(F)c(-c4ccc(OCCCN5CCCCC5)nc4)cc3c21 [AZD1390]; conditions: max 0.3 µM
How it was run: as §1

Venetoclax = compound: CC1(C)CCC(CN2CCN(c3ccc(C(=O)NS(=O)(=O)c4ccc(NCC5CCOCC5)c([N+](=O)[O-])c4)c(Oc4cnc5[nH]ccc5c4)c3)CC2)=C(c2ccc(Cl)cc2)C1 [Venetoclax]; conditions: max 1 µM
How it was run: as §1

Dasatinib = compound: CC1=C(C(=CC=C1)Cl)NC(=O)C2=CN=C(S2)NC3=CC(=NC(=N3)C)N4CCN(CC4)CCO [Dasatinib]; conditions: max 2 µM
How it was run: as §1

SG3199 = compound: CC1=CN2[C@@H](C1)C=NC3=CC(=C(C=C3C2=O)OC)OCCCCCOC4=C(C=C5C(=C4)N=C[C@@H]6CC(=CN6C5=O)C)OC [SG3199]; conditions: max 0.001 µM
How it was run: as §1

AZD2811 = compound: CCN(CCO)CCCOc1ccc2c(Nc3cc(CC(=O)Nc4cccc(F)c4)[nH]n3)ncnc2c1 [AZD2811]; conditions: max 1 µM
How it was run: as §1

SN-38 = compound: CCc1c2c(nc3ccc(O)cc13)-c1cc3c(c(=O)n1C2)COC(=O)[C@]3(O)CC [SN-38]; conditions: max 0.3 µM
How it was run: as §1

AZD0156 = compound: CN(C)CCCOc1ccc(-c2ccc3ncc4c(c3c2)n(C2CCOCC2)c(=O)n4C)cn1 [AZD0156]; conditions: max 3 µM
How it was run: as §1

AZD4320 = compound: CN(CC[C@H](CSC1=CC=CC=C1)NC2=C(C=C(C=C2)S(=O)(=O)NC(=O)C3=CC=C(C=C3)N4CCC(CC4)[C@H](C5=CC=CC=C5C6=CC=C(C=C6)Cl)O)S(=O)(=O)C(F)(F)F)CCO [AZD4320]; conditions: max 1 µM
How it was run: as §1

Alisertib = compound: COc1cc(Nc2ncc3c(n2)-c2ccc(Cl)cc2C(c2c(F)cccc2OC)=NC3)ccc1C(=O)O [Alisertib]; conditions: max 10 µM
How it was run: as §1

Etoposide = compound: COc1cc([C@@H]2c3cc4c(cc3[C@@H](O[C@@H]3O[C@@H]5CO[C@@H](C)O[C@H]5[C@H](O)[C@H]3O)[C@H]3COC(=O)[C@H]23)OCO4)cc(OC)c1O [Etoposide]; conditions: max 10 µM
How it was run: as §1

Gefitinib = compound: COc1cc2ncnc(Nc3ccc(F)c(Cl)c3)c2cc1OCCCN1CCOCC1 [Gefitinib]; conditions: max 10 µM
How it was run: as §1

Prexasertib = compound: COc1cccc(OCCCN)c1-c1cc(Nc2cnc(C#N)cn2)n[nH]1 [Prexasertib]; conditions: max 1 µM
How it was run: as §1

Doxorubicin = compound: COc1cccc2c1C(=O)c1c(O)c3c(c(O)c1C2=O)C[C@@](O)(C(=O)CO)C[C@@H]3O[C@H]1C[C@H](N)[C@H](O)[C@H](C)O1 [Doxorubicin]; conditions: max 1 µM
How it was run: as §1

AZD5153 = compound: COc1nnc2ccc(N3CCC(c4ccc(OCCN5CCN(C)C(=O)[C@H]5C)cc4)CC3)nn12 [AZD5153]; conditions: max 1 µM
How it was run: as §1

Lapatinib = compound: CS(=O)(=O)CCNCc1ccc(-c2ccc3ncnc(Nc4ccc(OCc5cccc(F)c5)c(Cl)c4)c3c2)o1 [Lapatinib]; conditions: max 10 µM
How it was run: as §1

AZD8186 = compound: C[C@@H](Nc1cc(F)cc(F)c1)c1cc(C(=O)N(C)C)cc2c(=O)cc(N3CCOCC3)oc12 [AZD8186]; conditions: max 10 µM
How it was run: as §1

Crizotinib = compound: C[C@@H](Oc1cc(-c2cnn(C3CCNCC3)c2)cnc1N)c1c(Cl)ccc(F)c1Cl [Crizotinib]; conditions: max 10 µM
How it was run: as §1

Savolitinib = compound: C[C@@H](c1ccc2nccn2c1)n1nnc2ncc(-c3cnn(C)c3)nc21 [Savolitinib]; conditions: max 1 µM
How it was run: as §1

AZD6738 = compound: C[C@@H]1COCCN1C2=NC(=NC(=C2)C3(CC3)[S@](=N)(=O)C)C4=C5C=CNC5=NC=C4 [AZD6738]; conditions: max 10 µM
How it was run: as §1

AZD5991 = compound: Cc1c2c(nn1C)CSCc1cc(n(C)n1)CSc1cc(c3ccccc3c1)OCCCc1c(C(=O)O)n(C)c3c-2c(Cl)ccc13 [AZD5991]; conditions: max 1 µM
How it was run: as §1

AZD7648 = compound: Cc1cc2ncnn2cc1Nc1ncc2c(n1)n(C1CCOCC1)c(=O)n2C [AZD7648]; conditions: max 10 µM
How it was run: as §1

Taselisib = compound: Cc1nc(-c2cn3c(n2)-c2ccc(-c4cnn(C(C)(C)C(N)=O)c4)cc2OCC3)n(C(C)C)n1 [Taselisib]; conditions: max 10 µM
How it was run: as §1

Selumetinib = compound: Cn1cnc2c(F)c(Nc3ccc(Br)cc3Cl)c(C(=O)NOCCO)cc21 [Selumetinib]; conditions: max 10 µM
How it was run: as §1

SRA737 = compound: N#Cc1cnc(Nc2cc(NC[C@H]3CNCCO3)c(C(F)(F)F)cn2)cn1 [SRA737]; conditions: max 10 µM
How it was run: as §1

MK-2206 = compound: NC1(c2ccc(-c3nc4ccn5c(=O)[nH]nc5c4cc3-c3ccccc3)cc2)CCC1 [MK-2206]; conditions: max 10 µM
How it was run: as §1

Gemcitabine = compound: Nc1ccn([C@@H]2O[C@H](CO)[C@@H](O)C2(F)F)c(=O)n1 [Gemcitabine]; conditions: max 0.3 µM
How it was run: as §1

[1] = compound: O=C(Nc1ccc2[nH]nc(-c3ccncc3)c2c1)[C@@H]1CCN(CC(=O)N2CCN(c3ccc(-c4ncccn4)cc3)CC2)C1; conditions: max 5 µM
How it was run: as §1

Olaparib = compound: O=C(c1cc(Cc2n[nH]c(=O)c3ccccc23)ccc1F)N1CCN(C(=O)C2CC2)CC1 [Olaparib]; conditions: max 10 µM
How it was run: as §1

5-Fluorouracil = compound: O=c1[nH]cc(F)c(=O)[nH]1 [5-Fluorouracil]; conditions: max 20 µM
How it was run: as §1

| Cell Line | IC50, cell viability 72 h (Carboplatin) [nM] | IC50, cell viability 72 h (AZD5363) [nM] | IC50, cell viability 72 h (AZD1775) [nM] | IC50, cell viability 72 h (Trametinib) [nM] | IC50, cell viability 72 h (Paclitaxel) [nM] | IC50, cell viability 72 h (Palbociclib) [nM] | IC50, cell viability 72 h (AZD1390) [nM] | IC50, cell viability 72 h (Venetoclax) [nM] | IC50, cell viability 72 h (Dasatinib) [nM] | IC50, cell viability 72 h (SG3199) [nM] | IC50, cell viability 72 h (AZD2811) [nM] | IC50, cell viability 72 h (SN-38) [nM] | IC50, cell viability 72 h (AZD0156) [nM] | IC50, cell viability 72 h (AZD4320) [nM] | IC50, cell viability 72 h (Alisertib) [nM] | IC50, cell viability 72 h (Etoposide) [nM] | IC50, cell viability 72 h (Gefitinib) [nM] | IC50, cell viability 72 h (Prexasertib) [nM] | IC50, cell viability 72 h (Doxorubicin) [nM] | IC50, cell viability 72 h (AZD5153) [nM] | IC50, cell viability 72 h (Lapatinib) [nM] | IC50, cell viability 72 h (AZD8186) [nM] | IC50, cell viability 72 h (Crizotinib) [nM] | IC50, cell viability 72 h (Savolitinib) [nM] | IC50, cell viability 72 h (AZD6738) [nM] | IC50, cell viability 72 h (AZD5991) [nM] | IC50, cell viability 72 h (AZD7648) [nM] | IC50, cell viability 72 h (Taselisib) [nM] | IC50, cell viability 72 h (Selumetinib) [nM] | IC50, cell viability 72 h (SRA737) [nM] | IC50, cell viability 72 h (MK-2206) [nM] | IC50, cell viability 72 h (Gemcitabine) [nM] | IC50, cell viability 72 h [1] [nM] | IC50, cell viability 72 h (Olaparib) [nM] | IC50, cell viability 72 h (5-Fluorouracil) [nM] |
| --- | --- | --- | --- | --- | --- | --- | --- | --- | --- | --- | --- | --- | --- | --- | --- | --- | --- | --- | --- | --- | --- | --- | --- | --- | --- | --- | --- | --- | --- | --- | --- | --- | --- | --- | --- |
| NAMALWA (Burkitt's Lymphoma) | > 10000 | 9010 | 300 | > 1000 | 4.84 | 9880 | > 300 | > 1000 | > 2000 | > 1 | > 1000 | 2.63 | > 3000 | > 1000 | 689 | 272 | > 10000 | 10.5 | 41.4 | 43.1 | > 10000 | 7520 | 2320 | > 1000 | 1140 | 61.1 | > 10000 | 2020 | > 10000 | 1670 | 8200 | 6.04 | > 5000 | > 10000 | 14500 |
| T84 (Colorectal Carcinoma) | > 10000 | > 10000 | 1310 | 804 | 548 | > 10000 | > 300 | > 1000 | > 2000 | > 1 | > 1000 | 131 | > 3000 | > 1000 | > 10000 | > 10000 | > 10000 | 89.7 | > 1000 | > 1000 | > 10000 | > 10000 | > 10000 | > 1000 | 6780 | > 1000 | > 10000 | 4660 | > 10000 | 4610 | > 10000 | 276 | > 5000 | > 10000 | > 20000 |
| MS-1 (Small Cell Lung Carcinoma) | > 10000 | > 10000 | 531 | > 1000 | 104 | > 10000 | > 300 | > 1000 | > 2000 | > 1 | > 1000 | 57.7 | > 3000 | > 1000 | > 10000 | 7200 | > 10000 | 22 | 244 | 120 | > 10000 | > 10000 | 6280 | > 1000 | 4380 | > 1000 | > 10000 | > 10000 | > 10000 | 9420 | > 10000 | 197 | > 5000 | > 10000 | > 20000 |
| IST-MEL1 (Melanoma) | > 10000 | > 10000 | 1480 | 934 | 252 | > 10000 | > 300 | > 1000 | > 2000 | > 1 | > 1000 | 18.1 | > 3000 | > 1000 | > 10000 | 9750 | > 10000 | 39.6 | 677 | > 1000 | > 10000 | > 10000 | > 10000 | > 1000 | 5600 | > 1000 | > 10000 | > 10000 | > 10000 | > 10000 | > 10000 | 70.9 | > 5000 | > 10000 | > 20000 |
| HPAF-II (Pancreatic Carcinoma) | > 10000 | > 10000 | 1890 | 101 | 625 | > 10000 | > 300 | > 1000 | > 2000 | – | > 1000 | > 300 | > 3000 | 766 | – | > 10000 | > 10000 | – | – | > 1000 | > 10000 | > 10000 | > 10000 | > 1000 | > 10000 | > 1000 | > 10000 | > 10000 | 8240 | > 10000 | > 10000 | > 300 | > 5000 | > 10000 | > 20000 |
